This is an account of results in patent publication US9983218B2, “Indole and indoline derivatives and methods of use thereof” (AbbVie Inc., priority 2008, dated 2018).

SMILES strings stand for the structures.

By EC50 is commonly meant the midpoint of the concentration-response curve.

The test system of the experiment is SK-N-SH human neuroblastoma cells. In words: Serum deprivation/JC-1 mitochondrial membrane potential (MMP) assay. The format is cell-based. The following applies: Homo sapiens; for Emax: SK-N-SH, percent maximal intensity in JC-1 ratio normalized to 10 μM dimebolin, read-out: JC-1 max %; for EC50: SK-N-SH cells, serum deprivation ~18 hours, JC-1 ratio normalized to peak value for 10 μM dimebolin, single curve fit to mean data of n=2-3, read-out: EC50. The protocol: SK-N-SH human neuroblastoma cells obtained from American Type Culture Collection (Rockville, Md.) were maintained in the log phase of growth in Minimal Essential Media (MEM), 10% heat inactivated fetal calf serum and 100 units/mL antibiotic-antimycotic (AA). Cells were cultured and maintained in a humidified incubator at 37° C. under 5% CO2 and 95% air. Cells were trypsinized (0.25%) and subcultured every 3 days and used from 15-18 passages. All cell culture supplies were obtained from Invitrogen (Carlsbad, Calif.).
SK-N-SH cells were plated 2-3 days in advance at a concentration of 50,000 cells/well onto collagen coated black-walled 96 well plates (Becton-Dickinson, Bedford, Mass.) in a total volume of 200 μL. On day of experimental treatment, the media containing serum was aspirated from each well and rinsed once with MEM/1% AA without serum. The cells then were incubated overnight in 100 μL of MEM/1% AA (no serum) with and without dimebolin or novel chemical entities overnight for ˜18 hours. The following day, JC-1 dye (5,5′,6,6′-tetrachloro-1,1′,3,3′-tetraethylbenzimidazolcarbocyanide) was diluted 1:10 into MEM media according to the JC-1 Mitochondrial Membrane Potential Assay Kit: (Cayman Chemical Company, Ann Arbor, Mich.) and then 10 μL of the JC-1 dye solution was added to each well. The plates were centrifuged for 5 minutes at 400×g at room temperature followed by 35 minute incubation at 37° C. The plates were washed twice with 200[…] μL of provided Assay Buffer followed an addition of 100 μL of Assay Buffer to each well. The plates were read with an excitation and emission of 560 nm and 595 nM for red fluorescence and with an excitation and emission of 485 nm and 535 nM for green fluorescence to determine the final JC-1 value taking the red to green fluorescence ratio. This assay is based on change in mitochondrial membrane potential (MMP) using this lipophilic cationic dye, JC-1, by monitoring the changes in the ratio of red to green fluorescence as the MMP depolarizes. This change in MMP reflects the health of the cell with healthy, viable cells have a high JC-1 ratio and high MMP whereas apoptotic, unhealthy cells have a low JC-1 ratio or low MMP.
For the ability of compounds to reverse the stress due to serum deprivation and increase the JC-1 ratio, the percent maximal intensity in JC-1 ratio was normalized to that induced by the peak value for 10 μM dimebolin and plotted against the compound concentration to calculate EC50 values and to control for plate-to-plate variability. Concentration-response data were analyzed using GraphPad Prism (San Diego, Calif.); the EC50 values were derived from a single curve fit to the mean data of n=2-3, in duplicates.
All compounds were dissolved in dimethyl sulfoxide at 10 mM stock solutions and tested at a concentration that the dimethyl sulfoxide levels never exceeded 1%.

For the molecule `Fc1ccc2c(c1)c1c(n2Cc2ccc(N3CCCC3)nc2)C2CCN(CC2)C1` [Example 244, 9-fluoro-6-{[6-(pyrrolidin-1-yl)pyridin-3-yl]methyl}-3,4,5,6-tetrahydro-1H-2,5-ethanoazepino[4,3-b]indole], the Emax was 226% and the EC50 worked out at 5.65 µM.
The like results for `CN1[C@H]2CC[C@@H]1c1c(n(-c3ccc4ncccc4c3)c3ccccc13)C2` [Example 281, (7S,10R)-11-methyl-5-(quinolin-6-yl)-5,6,7,8,9,10-hexahydro-7,10-epiminocyclohepta[b]indole] were, in that order, 228% and 1.74 µM.
The like results for `Cc1ccc(CCn2c3c(c4cc(F)ccc42)C2CCC(C3)N2C)cc1` (stereo not shown) [Example 84, 2-fluoro-11-methyl-5-[2-(4-methylphenyl)ethyl]-5,6,7,8,9,10-hexahydro-7,10-epiminocyclohepta[b]indole] were, in that order, 173% and 6.76 µM.
The like results for `CN1C2CCC1c1c(n(CCc3ccc(Cl)cc3)c3ccc(C(C)(C)C)cc13)C2` (stereo not shown) [Example 105, 2-tert-butyl-5-[2-(4-chlorophenyl)ethyl]-11-methyl-5,6,7,8,9,10-hexahydro-7,10-epiminocyclohepta[b]indole] were, in that order, 129% and 3.88 µM.
With `Cc1ccc2c(c1)c1c(n2CCc2ccccc2C)C2CC3CC1CN(C3)C2` (stereo not shown) [Example 197, 11-methyl-8-[2-(2-methylphenyl)ethyl]-1,4,5,6,7,8-hexahydro-2H-1,5:3,7-dimethanoazonino[5,4-b]indole], the Emax was 173% and the EC50 turned out to be 5.63 µM.
The matching figures for `CN1C2CCC1c1c(n(CCc3ccc(Cl)cc3)c3ccc(-c4ccc(Cl)cc4)cc13)C2` (stereo not shown) [Example 107, 2-(4-chlorophenyl)-5-[2-(4-chlorophenyl)ethyl]-11-methyl-5,6,7,8,9,10-hexahydro-7,10-epiminocyclohepta[b]indole]: 153% and 4.08 µM.
In the case of `Cc1ccc2c(c1)[C@H]1[C@H]3CC4C[C@H](CN(C4)C3)[C@H]1N2CCc1ccc(C)nc1` (relative stereo) [Example 194, (1R*,7R*,7aS*,12bR*)-11-methyl-8-[2-(6-methylpyridin-3-yl)ethyl]-1,4,5,6,7,7a,8,12b-octahydro-2H-1,5:3,7-dimethanoazonino[5,4-b]indole], the Emax was determined as 321% and the EC50 came out at 2.18 µM.
As for `O=c1ccnc2ccc(-n3c4c(c5ccccc53)[C@@H]3CC[C@H](C4)N3)cn12` (single isomer, unassigned) [Example 284], the Emax came to 108% and the EC50 stood at 7.62 µM.
The like results for `Cc1ccc2c(c1)c1c(n2CCc2ccc(C)nc2)CC2CCC1N2CC(F)(F)F` (stereo not shown) [Example 14, 2-methyl-5-[2-(6-methylpyridin-3-yl)ethyl]-11-(2,2,2-trifluoroethyl)-5,6,7,8,9,10-hexahydro-7,10-epiminocyclohepta[b]indole] were, in that order, 110% and 4.79 µM.
The like results for `Cc1ccc2c(c1)c1c(n2CCc2ccccc2F)CC2CCC1N2C` (stereo not shown) [Example 43, 5-[2-(2-fluorophenyl)ethyl]-2,11-dimethyl-5,6,7,8,9,10-hexahydro-7,10-epiminocyclohepta[b]indole] were, in that order, 202% and 7.64 µM.
The matching figures for `Cc1ccc2c(c1)c1c(n2/C=C/c2ccc(C)nc2)C2CCN(CC2)C1` [Example 146, 9-methyl-6-[(E)-2-(6-methylpyridin-3-yl)vinyl]-3,4,5,6-tetrahydro-1H-2,5-ethanoazepino[4,3-b]indole]: 264% and 2.84 µM.
In the case of `CN1CCN(c2ccc(-n3c4c(c5ccccc53)CN3CCC4CC3)cc2)CC1` [Example 237, 6-[4-(4-methylpiperazin-1-yl)phenyl]-3,4,5,6-tetrahydro-1H-2,5-ethanoazepino[4,3-b]indole], the Emax was found to be 174% and the 50% effective concentration (EC50) turned out to be 2.48 µM.
`c1cncc(Cn2c3c(c4ccccc42)CN2CCC3CC2)c1` [Example 188, 6-(pyridin-3-ylmethyl)-3,4,5,6-tetrahydro-1H-2,5-ethanoazepino[4,3-b]indole]: the Emax came to 96% and the EC50 worked out at 6.52 µM.
For the molecule `Fc1ccc2c(c1)c1c(n2Cc2cccnc2)C2CCN(CC2)C1` [Example 185, 9-fluoro-6-(pyridin-3-ylmethyl)-3,4,5,6-tetrahydro-1H-2,5-ethanoazepino[4,3-b]indole], the Emax stood at 184% and the EC50 was found to be 8.58 µM.
The matching figures for `Fc1ccc2c(c1)c1c(n2-c2ccc3ccccc3n2)C2CCN(CC2)C1` [Example 224, 9-fluoro-6-quinolin-2-yl-3,4,5,6-tetrahydro-1H-2,5-ethanoazepino[4,3-b]indole]: 215% and 3.17 µM.
The matching figures for `Cc1ccc2c(c1)c1c(n2CCOc2ccc(F)cc2)CC2CCC1N2C` (stereo not shown) [Example 67, 5-[2-(4-fluorophenoxy)ethyl]-2,11-dimethyl-5,6,7,8,9,10-hexahydro-7,10-epiminocyclohepta[b]indole]: 132% and 6.49 µM.
The like results for `Cc1ccc2c(c1)c1c(n2S(=O)(=O)c2cccnc2)CC2CCC1N2C` (stereo not shown) [Example 77, 2,11-dimethyl-5-(pyridin-3-ylsulfonyl)-5,6,7,8,9,10-hexahydro-7,10-epiminocyclohepta[b]indole] were, in that order, 223% and 9.22 µM.
Take `Fc1ccc2c(c1)c1c(n2Cc2cn3cccnc3n2)C2CCN(CC2)C1` [Example 254, 9-fluoro-6-(imidazo[1,2-a]pyrimidin-2-ylmethyl)-3,4,5,6-tetrahydro-1H-2,5-ethanoazepino[4,3-b]indole]: the Emax worked out at 57.1% and the half-maximal effective concentration (EC50) came out at 8.09 µM.
The matching figures for `Cc1ccc2c(c1)c1c(n2CCc2ccc(C)nn2)C2CCN(CC2)C1` [Example 148, 9-methyl-6-[2-(6-methylpyridazin-3-yl)ethyl]-3,4,5,6-tetrahydro-1H-2,5-ethanoazepino[4,3-b]indole]: 99% and 3.52 µM.
The like results for `CCOC(=O)Cn1c2c(c3cc(C)ccc31)CN1CCC2CC1` [Example 154, ethyl (9-methyl-1,3,4,5-tetrahydro-6H-2,5-ethanoazepino[4,3-b]indol-6-yl)acetate] were, in that order, 31% and 30 µM.
The matching figures for `Fc1ccc2c(c1)c1c(n2Cc2ccc(N3CCCCC3)nc2)C2CCN(CC2)C1` [Example 241, 9-fluoro-6-{[6-(piperidin-1-yl)pyridin-3-yl]methyl}-3,4,5,6-tetrahydro-1H-2,5-ethanoazepino[4,3-b]indole]: 156% and 7.96 µM.
Consider `Cc1ccc2c(c1)[C@@H]1[C@@H](C3CCN1CC3)N2CCc1ccc(C)nc1` (relative stereo) [Example 213, (4aR*,9bR*)-8-methyl-5-[2-(6-methylpyridin-3-yl)ethyl]-2,3,4,4a,5,9b-hexahydro-1,4-ethanopyrido[3,2-b]indole], for which the Emax is 177% and the half-maximal effective concentration (EC50) is 5.43 µM.
The like results for `c1ccc2c(c1)c1c(n2-c2ccc3ccncc3c2)C2CCN(CC2)C1` [Example 270, 6-(isoquinolin-7-yl)-3,4,5,6-tetrahydro-1H-2,5-ethanoazepino[4,3-b]indole] were, in that order, 270% and 2.81 µM.
In the case of `Fc1cncc(Cn2c3c(c4cc(F)ccc42)CN2CCC3CC2)c1` [Example 246, 9-fluoro-6-[(5-fluoropyridin-3-yl)methyl]-3,4,5,6-tetrahydro-1H-2,5-ethanoazepino[4,3-b]indole], the Emax came to 148% and the concentration giving a half-maximal response (EC50) came out at 8.76 µM.
The matching figures for `Clc1ccc(CCn2c3c(c4cc(Br)ccc42)CN2CCC3CC2)cc1` [Example 174, 9-bromo-6-[2-(4-chlorophenyl)ethyl]-3,4,5,6-tetrahydro-1H-2,5-ethanoazepino[4,3-b]indole]: 105% and 5.48 µM.
`Fc1ccc2c(c1)c1c(n2Cc2ccccn2)C2CCN(CC2)C1` [Example 184, 9-fluoro-6-(pyridin-2-ylmethyl)-3,4,5,6-tetrahydro-1H-2,5-ethanoazepino[4,3-b]indole]: the Emax came out at 175% and the EC50 was 10.7 µM.
